# Article PMC12175894 (Science Advances, 2025)
# Positions count from the first letter of the chain named. “Also recorded” adds a separate entry of the source. Read-outs that look alike come from different tables or passages of the source.
# Key:
# 5-HT1AR wildtype = target: T1, 5-HT1AR wildtype (Homo sapiens, UniProt P08908); experiment: GloSensor cAMP accumulation in HEK293AΔGi/o; type: cell-based; conditions: read-out: Emax [% ± SEM], cAMP accumulation
# T1 construct: host or cells: HEK293T, HEK293A, HEK293AΔGs, HEK293AΔGi/o, HEK293AΔARRB1/B2
# T1 sequence (P08908 1-422): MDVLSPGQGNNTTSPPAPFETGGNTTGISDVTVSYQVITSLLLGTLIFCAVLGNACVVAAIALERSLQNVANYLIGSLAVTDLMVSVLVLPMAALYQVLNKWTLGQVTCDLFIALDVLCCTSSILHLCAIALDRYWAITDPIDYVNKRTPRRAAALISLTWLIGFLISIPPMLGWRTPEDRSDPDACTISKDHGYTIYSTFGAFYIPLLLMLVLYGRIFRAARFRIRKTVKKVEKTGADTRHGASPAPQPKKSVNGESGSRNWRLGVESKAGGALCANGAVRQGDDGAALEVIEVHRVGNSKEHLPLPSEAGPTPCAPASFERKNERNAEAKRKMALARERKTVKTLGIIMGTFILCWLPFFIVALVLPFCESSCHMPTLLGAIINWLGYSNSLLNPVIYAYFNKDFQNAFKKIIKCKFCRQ
# dopamine D1 = dopamine D1 (Homo sapiens, UniProt P21728); experiment: Radioligand displacement, [3H]SCH23390
# 5-HT1BR = 5-HT1BR (Homo sapiens, UniProt P28222); experiment: BRET Gαi1 activation
# [1] = Metabolic stability with rat liver microsomes; type: in vitro ADME
# 5-HT1AR F112^3.28W = target: T2, 5-HT1AR F112^3.28W (Homo sapiens, UniProt P08908, F112W); experiment: GloSensor cAMP accumulation in HEK293AΔGi/o; type: cell-based; conditions: read-out: Emax [% ± SEM], cAMP accumulation
# T2 sequence (P08908 1-422 F112W): T1 sequence (P08908 1-422) with F112W
# α2BR = α2BR (Homo sapiens, UniProt P18089); experiment: BRET Gαi1 activation
# mice = experiment: Conditioned place preference; type: in vivo, mouse; conditions: 10 mg/kg i.p.
# 5-HT1AR [2] = target: T3, 5-HT1AR (Homo sapiens, UniProt P08908); experiment: High-throughput screening with radioligand displacement, single point; type: binding; set-up: host or cells: HEK293T, transient; membranes; conditions: compound at 10 nM
# T3 sequence (P08908 1-422): T1 sequence (P08908 1-422)
# 5-HT1DR = 5-HT1DR (Homo sapiens, UniProt P28221); experiment: BRET Gαi1 activation
# 5-HT1AR [3] = target: T3, 5-HT1AR; type: cell-based; set-up: host or cells: HEK293T, HEK293A, HEK293AΔGs, HEK293AΔGi/o, HEK293AΔARRB1/B2; conditions: HEK293AΔGi/o, GloSensor
# orexin OX1 = orexin OX1 (Homo sapiens, UniProt O43613); experiment: Radioligand displacement, [3H]SB674042
# muscarinic M1 = muscarinic M1 (Homo sapiens, UniProt P11229); experiment: Radioligand displacement, [3H]NMS
# 5-HT1AR [4] = target: T3, 5-HT1AR; experiment: IP-One accumulation with hybrid Gαqi in HEK293T; type: cell-based; set-up: host or cells: HEK293T, HEK293A, HEK293AΔGs, HEK293AΔGi/o, HEK293AΔARRB1/B2
# 5-HT1FR = 5-HT1FR (Homo sapiens, UniProt P30939); experiment: BRET Gαi1 activation
# 5-HT1AR wt = target: T4, 5-HT1AR wt (Homo sapiens, UniProt P08908); experiment: Radioligand competition, displacement of [3H]WAY100635; type: binding
# T4 construct: host or cells: HEK293T, transient; membranes
# T4 sequence (P08908 1-422): T1 sequence (P08908 1-422)
# opioid δOR = opioid δOR (Homo sapiens, UniProt P41143); experiment: Radioligand displacement, [3H]diprenorphine
# α2AR = α2AR (Homo sapiens, UniProt P08913); experiment: BRET Gαi1 activation
# 5-HT1AR [5] = target: T3, 5-HT1AR; experiment: β-arrestin 1 recruitment, enhanced bystander BRET in HEK293T with GRK2; conditions: HEK-293T, read-out: Emax, β-arrestin 1 recruitment
# adrenergic α2C = adrenergic α2C (Homo sapiens, UniProt P18825); experiment: Radioligand displacement, [3H]RX821002
# opioid µOR = opioid µOR (Homo sapiens, UniProt P35372); experiment: Radioligand displacement, [3H]diprenorphine
# Sequence of opioid µOR (P35372 whole entry): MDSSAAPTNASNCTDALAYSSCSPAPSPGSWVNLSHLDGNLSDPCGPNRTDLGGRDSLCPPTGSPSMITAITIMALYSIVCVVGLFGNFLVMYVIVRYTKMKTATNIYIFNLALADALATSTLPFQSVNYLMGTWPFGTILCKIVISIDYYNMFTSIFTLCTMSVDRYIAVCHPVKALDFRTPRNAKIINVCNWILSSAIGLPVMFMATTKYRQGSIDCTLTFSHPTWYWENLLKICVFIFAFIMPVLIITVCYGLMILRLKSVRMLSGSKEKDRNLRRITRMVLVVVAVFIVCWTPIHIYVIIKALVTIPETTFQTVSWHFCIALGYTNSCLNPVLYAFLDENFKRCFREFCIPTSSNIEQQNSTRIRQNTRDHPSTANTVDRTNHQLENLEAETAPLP
# Sequence of adrenergic α2C (P18825 whole entry): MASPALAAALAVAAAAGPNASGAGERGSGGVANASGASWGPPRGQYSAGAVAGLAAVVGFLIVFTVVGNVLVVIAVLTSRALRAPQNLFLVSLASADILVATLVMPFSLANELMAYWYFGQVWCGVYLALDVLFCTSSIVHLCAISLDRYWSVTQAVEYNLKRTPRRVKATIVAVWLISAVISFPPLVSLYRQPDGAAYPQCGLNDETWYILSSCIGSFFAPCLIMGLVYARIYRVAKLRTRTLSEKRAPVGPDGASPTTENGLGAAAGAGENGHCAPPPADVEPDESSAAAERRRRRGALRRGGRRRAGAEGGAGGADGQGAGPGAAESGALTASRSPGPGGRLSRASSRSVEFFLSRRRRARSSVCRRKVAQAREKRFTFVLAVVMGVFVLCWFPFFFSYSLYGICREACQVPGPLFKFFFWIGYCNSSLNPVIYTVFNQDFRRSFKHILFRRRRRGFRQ
# Sequence of 5-HT1DR (P28221 whole entry): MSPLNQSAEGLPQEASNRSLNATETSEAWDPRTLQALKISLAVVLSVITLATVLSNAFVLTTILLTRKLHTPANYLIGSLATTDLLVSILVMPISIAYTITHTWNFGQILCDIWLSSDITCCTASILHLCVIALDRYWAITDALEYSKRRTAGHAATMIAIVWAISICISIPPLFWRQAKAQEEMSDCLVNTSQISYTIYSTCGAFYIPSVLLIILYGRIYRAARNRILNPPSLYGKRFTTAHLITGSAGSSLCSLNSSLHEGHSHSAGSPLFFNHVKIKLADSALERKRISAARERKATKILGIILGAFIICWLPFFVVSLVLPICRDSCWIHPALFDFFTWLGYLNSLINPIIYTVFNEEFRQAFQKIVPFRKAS
# Sequence of orexin OX1 (O43613 whole entry): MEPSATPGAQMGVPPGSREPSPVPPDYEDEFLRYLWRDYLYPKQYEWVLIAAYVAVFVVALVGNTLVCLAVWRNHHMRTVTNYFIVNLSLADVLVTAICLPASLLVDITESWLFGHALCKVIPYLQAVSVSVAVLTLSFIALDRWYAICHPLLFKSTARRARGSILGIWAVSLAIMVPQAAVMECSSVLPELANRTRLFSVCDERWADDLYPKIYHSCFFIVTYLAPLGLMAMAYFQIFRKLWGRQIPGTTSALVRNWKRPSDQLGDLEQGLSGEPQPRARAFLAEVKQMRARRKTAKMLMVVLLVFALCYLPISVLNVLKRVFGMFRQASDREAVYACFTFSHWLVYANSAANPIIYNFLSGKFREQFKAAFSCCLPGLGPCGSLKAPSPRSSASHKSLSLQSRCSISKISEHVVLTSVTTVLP
# Sequence of dopamine D1 (P21728 whole entry): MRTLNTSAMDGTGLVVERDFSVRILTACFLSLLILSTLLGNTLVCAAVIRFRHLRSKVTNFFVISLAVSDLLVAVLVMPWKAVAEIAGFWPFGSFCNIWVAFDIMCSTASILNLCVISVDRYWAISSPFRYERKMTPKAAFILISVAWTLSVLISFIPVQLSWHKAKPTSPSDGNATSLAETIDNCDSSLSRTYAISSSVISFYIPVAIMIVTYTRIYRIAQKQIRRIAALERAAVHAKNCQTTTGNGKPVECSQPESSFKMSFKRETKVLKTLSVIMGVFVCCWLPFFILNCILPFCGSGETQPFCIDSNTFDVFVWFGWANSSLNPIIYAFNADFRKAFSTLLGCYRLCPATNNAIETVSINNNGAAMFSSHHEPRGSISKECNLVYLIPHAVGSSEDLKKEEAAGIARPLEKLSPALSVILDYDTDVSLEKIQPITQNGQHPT
# Sequence of muscarinic M1 (P11229 whole entry): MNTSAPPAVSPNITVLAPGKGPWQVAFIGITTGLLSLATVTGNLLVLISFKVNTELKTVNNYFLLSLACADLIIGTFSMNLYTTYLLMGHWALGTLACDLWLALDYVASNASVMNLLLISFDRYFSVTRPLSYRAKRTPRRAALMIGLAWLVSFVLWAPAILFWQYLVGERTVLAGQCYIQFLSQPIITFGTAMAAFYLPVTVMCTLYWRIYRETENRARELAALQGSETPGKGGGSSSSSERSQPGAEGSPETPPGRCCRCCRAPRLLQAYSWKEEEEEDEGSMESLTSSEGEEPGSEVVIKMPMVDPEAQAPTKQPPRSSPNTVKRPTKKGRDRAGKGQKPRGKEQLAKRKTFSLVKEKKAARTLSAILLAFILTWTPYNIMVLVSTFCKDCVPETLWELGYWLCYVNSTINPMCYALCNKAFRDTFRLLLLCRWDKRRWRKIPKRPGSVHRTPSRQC
# Sequence of 5-HT1BR (P28222 whole entry): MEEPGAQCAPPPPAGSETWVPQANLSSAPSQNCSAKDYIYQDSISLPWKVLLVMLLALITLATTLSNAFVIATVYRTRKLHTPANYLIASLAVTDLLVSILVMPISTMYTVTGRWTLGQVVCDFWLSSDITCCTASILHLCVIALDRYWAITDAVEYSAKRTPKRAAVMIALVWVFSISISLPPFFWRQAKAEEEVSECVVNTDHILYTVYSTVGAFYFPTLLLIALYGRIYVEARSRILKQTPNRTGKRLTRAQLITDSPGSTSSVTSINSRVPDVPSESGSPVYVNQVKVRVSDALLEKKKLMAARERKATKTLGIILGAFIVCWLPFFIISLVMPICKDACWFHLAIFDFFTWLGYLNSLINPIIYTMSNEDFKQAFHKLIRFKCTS
# Sequence of opioid δOR (P41143 whole entry): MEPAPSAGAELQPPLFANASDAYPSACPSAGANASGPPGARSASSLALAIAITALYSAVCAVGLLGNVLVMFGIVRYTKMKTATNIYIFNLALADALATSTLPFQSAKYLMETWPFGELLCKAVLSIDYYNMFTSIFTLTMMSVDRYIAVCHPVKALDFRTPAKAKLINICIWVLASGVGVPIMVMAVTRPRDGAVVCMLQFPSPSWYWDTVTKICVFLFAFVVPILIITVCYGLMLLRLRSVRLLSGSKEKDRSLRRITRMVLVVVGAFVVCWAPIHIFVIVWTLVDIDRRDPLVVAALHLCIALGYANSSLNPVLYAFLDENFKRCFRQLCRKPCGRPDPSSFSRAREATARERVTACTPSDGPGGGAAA
# Sequence of 5-HT1FR (P30939 whole entry): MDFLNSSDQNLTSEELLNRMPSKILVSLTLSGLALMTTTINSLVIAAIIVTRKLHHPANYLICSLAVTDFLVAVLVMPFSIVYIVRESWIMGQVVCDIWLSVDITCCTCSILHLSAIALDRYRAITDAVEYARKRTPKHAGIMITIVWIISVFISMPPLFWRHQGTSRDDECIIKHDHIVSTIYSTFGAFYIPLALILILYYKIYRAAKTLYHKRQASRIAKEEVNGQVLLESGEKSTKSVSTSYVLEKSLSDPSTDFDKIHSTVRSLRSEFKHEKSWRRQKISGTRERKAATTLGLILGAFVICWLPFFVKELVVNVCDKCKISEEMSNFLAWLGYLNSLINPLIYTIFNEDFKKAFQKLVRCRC
# Sequence of α2AR (P08913 whole entry): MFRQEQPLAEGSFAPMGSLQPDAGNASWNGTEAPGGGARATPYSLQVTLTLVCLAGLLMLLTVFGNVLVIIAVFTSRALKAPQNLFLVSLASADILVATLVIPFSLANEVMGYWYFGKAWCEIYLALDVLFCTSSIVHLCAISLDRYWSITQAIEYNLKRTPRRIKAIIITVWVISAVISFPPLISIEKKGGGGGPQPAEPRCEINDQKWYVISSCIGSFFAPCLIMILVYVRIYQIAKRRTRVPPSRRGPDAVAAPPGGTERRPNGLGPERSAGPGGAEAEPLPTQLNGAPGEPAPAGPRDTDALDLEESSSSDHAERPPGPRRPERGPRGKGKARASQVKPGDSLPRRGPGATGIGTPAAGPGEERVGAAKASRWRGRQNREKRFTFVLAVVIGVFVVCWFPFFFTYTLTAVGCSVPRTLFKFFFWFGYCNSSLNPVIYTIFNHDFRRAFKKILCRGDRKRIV
# Sequence of α2BR (P18089 whole entry): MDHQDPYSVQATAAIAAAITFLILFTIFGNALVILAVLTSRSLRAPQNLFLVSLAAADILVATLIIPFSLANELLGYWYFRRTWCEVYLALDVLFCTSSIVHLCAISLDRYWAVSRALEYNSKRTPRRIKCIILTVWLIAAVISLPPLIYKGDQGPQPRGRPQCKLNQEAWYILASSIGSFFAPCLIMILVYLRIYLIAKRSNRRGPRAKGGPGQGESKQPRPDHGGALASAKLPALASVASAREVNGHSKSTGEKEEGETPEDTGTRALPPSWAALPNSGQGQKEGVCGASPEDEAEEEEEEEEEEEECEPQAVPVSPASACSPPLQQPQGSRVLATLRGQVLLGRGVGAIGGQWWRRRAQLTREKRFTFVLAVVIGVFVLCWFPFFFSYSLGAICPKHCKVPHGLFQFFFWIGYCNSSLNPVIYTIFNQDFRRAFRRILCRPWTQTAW
smiles,measurement,setting,value
"Cc1ccc(CNCC2(F)CCN(C(=O)c3ccc(F)c(Cl)c3)CC2)nc1 [befiradol, reference compound]",Emax,5-HT1AR wildtype,74 ± 3%
COc1ccccc1OCCNCCCOc1ccc2c(c1)NC(=O)CO2 [ST171],Ki,dopamine D1; Ki [nM ± SD],260 ± 170 nM
same,Ki,dopamine D1; pKi,209 nM
same,EC50,5-HT1BR,3.7 nM
same,Emax,5-HT1BR,94%
same,intact substrate remaining,[1]; after 1 h incubation,more than 70%
same,intact substrate remaining,[1]; after 3 h incubation,> 45%
same,Emax,5-HT1AR F112^3.28W,< 5%
same,intrinsic activity,α2BR,devoid of intrinsic activity
same,conditioned place preference (rewarding properties),mice,rewarding; also recorded: induces CPP
same,"displacement of the radiolabeled ligand [3H]WAY100,635",5-HT1AR [2],more than 80%
same,EC50,5-HT1DR,5.7 nM
same,Emax,5-HT1DR,54%
same,IC50,5-HT1AR [3],3.9 ± 0.8 nM
same,Ki,orexin OX1; Ki [nM ± SD],> 50000 nM
same,Ki,orexin OX1; pKi,> 50100 nM
same,Ki,muscarinic M1; Ki [nM ± SD],10000 ± 920 nM
same,Ki,muscarinic M1; pKi,10300 nM
same,Emax,"5-HT1AR [4]; HEK-293T, read-out: Emax[Gqi], IP accumulation",43%
same,EC50,"5-HT1AR [4]; hybrid Gαqi, HEK293T, read-out: EC50[Gqi], IP accumulation",13 ± 2.9 nM
same,Emax,5-HT1FR,< 10%
same,Ki,"5-HT1AR wt; 5-HT1A, read-out: pKi (converted)",0.369 nM
same,Ki,"5-HT1AR wt; 5-HT1AR wt, membranes from transiently transfected HEK 293T cells, read-out: Ki [nM ± SEM]",0.41 nM
same,Ki,opioid δOR; Ki [nM ± SD],24000 ± 3500 nM
same,Ki,opioid δOR; pKi,23400 nM
same,intrinsic activity,α2AR,devoid of intrinsic activity
same,Emax,5-HT1AR [5],< 5%
same,Ki,adrenergic α2C; Ki [nM ± SD],28 ± 12 nM
same,Ki,adrenergic α2C; pKi,25.9 nM
same,Ki,"opioid µOR; Ki [nM ± SD], µOR",8600 ± 2100 nM
same,Ki,"opioid µOR; Ki, opioid receptor family",> 5000 nM
same,Ki,"opioid µOR; pKi, µOR",8430 nM
